Laboratory results published in the NIST ThermoML archive (doi:10.1016/j.fluid.2019.04.019).
± gives the expanded uncertainty stated by the source.

Tests used:
[1] = Crystal
[2] = Molar enthalpy of transition or fusion; conditions: Crystal; DSC

Row | Normal melting temperature ([1]; DTA) [°C] | Molar enthalpy of transition or fusion [2] [kcal/mol] | SMILES | Normal melting temperature ([1]; visual observation) [°C]
1 | – | – | CC[N+](CC)(CC)CC.[Cl-] [tetraethylammonium chloride] | 262.2 ± 0.5
2 | – | – | C[N+](C)(C)Cc1ccccc1.[Cl-] [trimethylbenzylammonium chloride] | 236.1 ± 0.5
3 | 169 ± 0.5 | 1.61 ± 0.0693 | CC(O)C[N+](C)(C)C.[Cl-] (stereo not drawn) [beta.-methylcholine chloride] | –
4 | – | – | CCC[N+]1(C)CCCCC1.[Cl-] [1-methyl-1-propyl-piperidinium chloride] | 225.2 ± 0.5
5 | 132.2 ± 0.5 | 6.25 ± 0.182 | CCCC[n+]1ccccc1.[Cl-] [1-butylpyridinium chloride] | –
6 | – | – | C[N+](C)(C)CCO.[Br-] [choline bromide] | 308.5 ± 0.5
7 | – | – | C[N+](C)(C)C.[Cl-] [tetramethylammonium chloride] | 341.6 ± 0.5
8 | – | – | C[N+](C)(CCO)CCO.[Cl-] [diethanoldimethylammonium chloride] | 290.6 ± 0.5
